According to patent US20050239656A1, “Pyridine compounds or salts thereof and herbicides containing the same” (priority 2002, published 2005):

Columns and labels:
barnyardgrass = assay: Test Example 3: paddy pot test, application under submerged conditions; type: in vivo, Echinochloa crus-galli L.; settings: submerged application at 0.5 leaf stage, visually observed 14 days after application, 0 = non-treated, 100 = complete kill
Text: (§1) Paddy field soil was put into a 1/1,000,000 ha pot, and seed of barnyardgrass and japanese bulrush were sown and slightly covered with soil. Then, the pot was left to stand still in a greenhouse in a state where the depth of flooding water was from 0.5 to 1 cm, and one day or two days later, tubers of japanese ribbon wapato were planted. Thereafter, the depth of flooding water was maintained at a level of from 3 to 4 cm, and when barnyardgrass and japanese bulrush reached a 0.5 leaf stage and japanese ribbon wapato reached a primary leaf stage, an aqueous diluted solution of a wettable powder or emulsifiable concentrate having the compound of the present invention formulated in accordance with a usual formulation method, was uniformly applied under submerged conditions by a pipette so that the dose of the active ingredient would be at a predetermined level. On the 14 days after the application of the herbicide, the growth of barnyard grass, japanese burlrush and japanese ribbon wapato was visually observed and on the 21st day after the application of the herbicide, the growth of rice was visually observed, and the herbicidal effects were evaluated by the growth-controlling degrees (%) ranging from 0 (equivalent to the non-treated plot) to 100 (complete kill), whereby the results shown in Table 5 were obtained.

japanese bulrush = assay: as above; type: in vivo, Scirpus juncoides; settings: submerged application at 0.5 leaf stage, visually observed 14 days after application, 0 = non-treated, 100 = complete kill
Text: as §1

rice (var. Nihonbare) = assay: Test Example 3: paddy pot test, transplanted rice; type: in vivo, Oryza sativa L.; settings: applied 4th day after transplantation, visually observed 21st day after application, 0 = non-treated, 100 = complete kill
Text: as §1, with “On the other hand, paddy field soil was put into a 1/1,000,000 ha pot and puddled and leveled, and the depth of flooding water was from 3 to 4 cm. Next day, rice (var. Nihonbare) of 2 leaf stage was transplanted in a depth of 3 cm. On the 4th day after the transplantation, the compound of the present invention was applied in the same manner as described above. On the 14 days” for “On the 14 days”

japanese ribbon wapato = assay: Test Example 3: paddy pot test, application under submerged conditions; type: in vivo, Sagittaria pygniaea; settings: submerged application at primary leaf stage, visually observed 14 days after application, 0 = non-treated, 100 = complete kill
Text: as §1

| Structure (SMILES) | Growth controlling degree (%) Barnyardgrass (barnyardgrass; active ingredient 250 g/ha) | Growth controlling degree (%) Japanese bulrush (japanese bulrush; active ingredient 250 g/ha) | Growth controlling degree (%) Rice (rice (var. Nihonbare); active ingredient 250 g/ha) | Growth controlling degree (%) Barnyardgrass (barnyardgrass; active ingredient 500 g/ha) | Growth controlling degree (%) Japanese bulrush (japanese bulrush; active ingredient 500 g/ha) | Growth controlling degree (%) Japanese ribbon wapato (japanese ribbon wapato; active ingredient 500 g/ha) | Growth controlling degree (%) Rice (rice (var. Nihonbare); active ingredient 500 g/ha) | further results |
| --- | --- | --- | --- | --- | --- | --- | --- | --- |
| CC(Oc1ccc(F)cc1F)C(=O)N(C)C(c1cnccc1C(F)(F)F)C(C)C (mixture of isomers) [I-138] | 98% | 100% | 10% | – | – | – | – | – |
| CC(Oc1ccc(Cl)cc1)C(=O)N(C)C(c1cnccc1C(F)(F)F)C(C)C (mixture of isomers) [I-139] | 98% | 98% | 10% | – | – | – | – | – |
| CC(Sc1ccccc1)C(=O)N(C)C(c1cnccc1C(F)(F)F)C(C)C (mixture of isomers) [I-140] | 98% | 98% | 0% | – | – | – | – | – |
| CC(Sc1ccc(Cl)cc1)C(=O)N(C)C(c1cnccc1C(F)(F)F)C(C)C (mixture of isomers) [I-141] | 100% | 98% | 20% | – | – | – | – | – |
| CC(C)C(c1cnccc1Br)N(C)C(=O)Cc1ccccc1 (racemic) [I-110] | 98% | 90% | 0% | – | – | – | – | Growth controlling degree (%) Japanese ribbon wapato (japanese ribbon wapato; active ingredient 250 g/ha): 20% |
| CC(C)C(c1cnccc1C(F)(F)F)N(C)C(=O)OCc1ccccc1 (racemic) [I-111] | 90% | 10% | 0% | – | – | – | – | – |
| CC(C)C(NC(=O)c1ccccc1)c1cnccc1C(F)(F)F (racemic) [I-115] | – | – | – | 70% | 40% | 20% | 20% | – |
| Cc1cc(F)ccc1CC(=O)N(C)C(c1cnccc1C(F)(F)F)C(C)C (racemic) [I-116] | – | – | – | 100% | 95% | 50% | 10% | – |
| CC(C)C(c1ccc(C(F)(F)F)nc1)N(C)C(=O)Cc1ccccc1 (racemic) [I-123] | – | – | – | 70% | 10% | – | 10% | – |
| CC(C)C(NC(=O)Cc1ccc(C(F)(F)F)cc1)c1cnccc1C(F)(F)F (stereo not drawn) [I-7] | – | – | – | 95% | 70% | 0% | 20% | – |
| CC(C)C(c1cnccc1C(F)(F)F)N(C)C(=O)Cc1ccc(-c2ccccc2)cc1 (stereo not drawn) [I-9] | – | – | – | 100% | 10% | 30% | 0% | – |
| CCN(C(=O)Cc1ccccc1)C(c1cnccc1C(F)(F)F)C(C)C (stereo not drawn) [I-24] | – | – | – | – | 95% | 100% | 40% | – |
| COc1ccccc1CC(=O)N(C)C(c1cnccc1C(F)(F)F)C(C)C (stereo not drawn) [I-35] | 100% | 95% | 0% | – | – | – | – | Growth controlling degree (%) Japanese ribbon wapato (japanese ribbon wapato; active ingredient 250 g/ha): 70% |
| CSc1ccc(CC(=O)N(C)C(c2cnccc2C(F)(F)F)C(C)C)cc1 (stereo not drawn) [I-37] | 100% | 50% | 0% | – | – | – | – | Growth controlling degree (%) Japanese ribbon wapato (japanese ribbon wapato; active ingredient 250 g/ha): 10% |
| CCCC(=O)NC(c1cnccc1C(F)(F)F)c1cccc2ccccc12 (stereo not drawn) [I-49] | – | – | – | 90% | 85% | – | 10% | – |
| CCCC(=O)N(C)C(c1cnccc1C(F)(F)F)c1cccc2ccccc12 (stereo not drawn) [I-50] | – | – | – | 95% | 95% | – | 10% | – |
| CC(C)C(c1cnccc1C(F)(F)F)N(C)C(=O)Cc1cccc2ccccc12 (stereo not drawn) [I-56] | – | – | – | 95% | 70% | 90% | 20% | – |
| CC(C)C(c1cnccc1C(F)(F)F)N(C)C(=O)Cc1ccc2ccccc2c1 (stereo not drawn) [I-58] | – | – | – | 100% | 40% | 0% | 35% | – |
| CC(C)C(c1cnccc1Cl)N(C)C(=O)Cc1ccc2ccccc2c1 (stereo not drawn) [I-59] | – | – | – | 90% | 10% | 60% | 10% | – |
| CC(C)C(c1cnccc1Cl)N(C)C(=O)Cc1ccc(F)cc1F (stereo not drawn) [I-71] | – | – | – | – | – | – | – | Growth controlling degree (%) Barnyardgrass (barnyardgrass; active ingredient 125 g/ha): 90%; Growth controlling degree (%) Japanese bulrush (japanese bulrush; active ingredient 125 g/ha): 90%; Growth controlling degree (%) Japanese ribbon wapato (japanese ribbon wapato; active ingredient 125 g/ha): 40%; Growth controlling degree (%) Rice (rice (var. Nihonbare); active ingredient 125 g/ha): 0% |
| CCN(C(=O)Cc1cccc(F)c1F)C(c1cnccc1C(F)(F)F)C(C)C (stereo not drawn) [I-77] | 98% | 95% | 0% | – | – | – | – | Growth controlling degree (%) Japanese ribbon wapato (japanese ribbon wapato; active ingredient 250 g/ha): 40% |
| CC(C)C(c1cnccc1C(F)(F)F)N(C)S(=O)(=O)C=Cc1ccc(Cl)cc1 (stereo not drawn) [I-142] | 100% | 60% | 10% | – | – | – | – | – |
| CC(C)C(c1cnccc1C(F)(F)F)N(C)C(=O)C(F)(F)c1ccccc1 (stereo not drawn) [I-143] | 98% | 98% | 10% | – | – | – | – | – |
| COc1ccc(S(=O)(=O)N(C)C(c2cnccc2C(F)(F)F)C(C)C)cc1 (stereo not drawn) [I-144] | 100% | 98% | 20% | – | – | – | – | – |
| CC(C)C(c1cnccc1C(F)(F)F)N(C)S(=O)(=O)c1ccc(C(C)(C)C)cc1 (stereo not drawn) [I-145] | 100% | 0% | 20% | – | – | – | – | – |
| C=CCCC(=O)N(C)C(c1cnccc1C(F)(F)F)C(C)C (stereo not drawn) [I-211] | 100% | 98% | 50% | – | – | – | – | – |
